Structures can show the parent of a compound that is named as a salt.
Key:
Details in all cases: 24 h
U2OS [1] = test: nuclei count in OPP assay relative to DMSO (% of DMSO); higher = more viable cells
Method: (§1)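 Validation screen in U2OS cells: hits tested at 1, 3 and 10 uM for 24 h in duplicate plates. Translation was read by OPP incorporation (1 h pulse) and HPG incorporation (30 min in methionine-free medium), quantified by high-throughput microscopy alongside nuclei counts. All values are normalised to DMSO (= 100).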

U2OS [2] = test: mean OPP incorporation (global translation) relative to DMSO (% of DMSO); higher = more protein synthesis
Method: as §1

U2OS [3] = test: mean HPG incorporation (global translation) relative to DMSO (% of DMSO); higher = more protein synthesis
Method: as §1

U2OS [4] = test: nuclei count in HPG assay relative to DMSO (% of DMSO); higher = more viable cells
Method: as §1

How did the “nuclei count in OPP assay” value (U2OS [1]; 1 µM) turn out when CCN(CC)CCOc1ccc(C(=C(Cl)c2ccccc2)c2ccccc2)cc1 [Clomiphene citrate (Z,E)] was run?
The value was 88.

What about the “nuclei count in OPP assay” value (U2OS [1]; 3 µM) of the same compound?
Its value is 98.6.

And the “nuclei count in OPP assay” value (U2OS [1]; 10 µM)?
The value was 93.3.

And the “mean OPP incorporation” value (U2OS [2]; 1 µM)?
Its value is 116.

And the “mean OPP incorporation” value (U2OS [2]; 3 µM)?
Its value is 124.

What about the “mean OPP incorporation” value (U2OS [2]; 10 µM) of the same compound?
Its value is 136.

And the “mean HPG incorporation” value (U2OS [3]; 1 µM)?
The value was 90.2.

What about the “mean HPG incorporation” value (U2OS [3]; 3 µM) of the same compound?
Its value is 115.

What about the “mean HPG incorporation” value (U2OS [3]; 10 µM) of the same compound?
The value was 123.

What about the “nuclei count in HPG assay” value (U2OS [4]; 1 µM) of the same compound?
The value was 91.3.

And the “nuclei count in HPG assay” value (U2OS [4]; 3 µM)?
Its value is 95.3.

And the “nuclei count in HPG assay” value (U2OS [4]; 10 µM)?
Its value is 86.7.

With C=CC[C@@H]1/C=C(\C)C[C@H](C)C[C@H](OC)[C@H]2O[C@@](O)(C(=O)C(=O)N3CCCC[C@H]3C(=O)O[C@H](/C(C)=C/[C@@H]3CC[C@@H](O)[C@H](OC)C3)[C@H](C)[C@@H](O)CC1=O)[C@H](C)C[C@@H]2OC [FK-506 (Tacrolimus)] as the compound, how does the “nuclei count in OPP assay” value (U2OS [1]; 1 µM) read?
The value was 98.7.

What about the “nuclei count in OPP assay” value (U2OS [1]; 3 µM) of the same compound?
Its value is 100.

And the “nuclei count in OPP assay” value (U2OS [1]; 10 µM)?
Its value is 93.3.

What about the “mean OPP incorporation” value (U2OS [2]; 1 µM) of the same compound?
The value was 115.

And the “mean OPP incorporation” value (U2OS [2]; 3 µM)?
Its value is 123.

What about the “mean OPP incorporation” value (U2OS [2]; 10 µM) of the same compound?
Its value is 134.

What about the “mean HPG incorporation” value (U2OS [3]; 1 µM) of the same compound?
The value was 121.

What about the “mean HPG incorporation” value (U2OS [3]; 3 µM) of the same compound?
Its value is 125.

What about the “mean HPG incorporation” value (U2OS [3]; 10 µM) of the same compound?
Its value is 133.

What about the “nuclei count in HPG assay” value (U2OS [4]; 1 µM) of the same compound?
The value was 102.

And the “nuclei count in HPG assay” value (U2OS [4]; 3 µM)?
The value was 98.7.

What about the “nuclei count in HPG assay” value (U2OS [4]; 10 µM) of the same compound?
Its value is 99.9.

Which “nuclei count in OPP assay” value (U2OS [1]; 1 µM) does the source give for CC1=C(/C=C/C(C)=C/C=C/C(C)=C/C(=O)Nc2ccc(O)cc2)C(C)(C)CCC1 [Fenretinide] here?
The value was 97.1.

And the “nuclei count in OPP assay” value (U2OS [1]; 3 µM)?
Its value is 96.5.

And the “nuclei count in OPP assay” value (U2OS [1]; 10 µM)?
Its value is 87.9.

And the “mean OPP incorporation” value (U2OS [2]; 1 µM)?
Its value is 107.

What about the “mean OPP incorporation” value (U2OS [2]; 3 µM) of the same compound?
The value was 109.

And the “mean OPP incorporation” value (U2OS [2]; 10 µM)?
The value was 117.

And the “mean HPG incorporation” value (U2OS [3]; 1 µM)?
Its value is 98.1.

What about the “mean HPG incorporation” value (U2OS [3]; 3 µM) of the same compound?
The value was 93.5.

And the “mean HPG incorporation” value (U2OS [3]; 10 µM)?
The value was 96.7.

And the “nuclei count in HPG assay” value (U2OS [4]; 1 µM)?
The value was 102.

And the “nuclei count in HPG assay” value (U2OS [4]; 3 µM)?
The value was 93.9.

And the “nuclei count in HPG assay” value (U2OS [4]; 10 µM)?
Its value is 86.7.

Which results are given for C[C@]12CC[C@@H]3c4ccc(O)cc4C[C@@H](CCCCCCCCC[S+]([O-])CCCC(F)(F)C(F)(F)F)[C@H]3[C@@H]1CC[C@@H]2O (stereo not given in full) [Fulvestrant]?
nuclei count in OPP assay (U2OS [1]; 1 µM): 98.7; nuclei count in OPP assay (U2OS [1]; 3 µM): 96.4; nuclei count in OPP assay (U2OS [1]; 10 µM): 93.8; mean OPP incorporation (U2OS [2]; 1 µM): 115; mean OPP incorporation (U2OS [2]; 3 µM): 123; mean OPP incorporation (U2OS [2]; 10 µM): 115; mean HPG incorporation (U2OS [3]; 1 µM): 118; mean HPG incorporation (U2OS [3]; 3 µM): 125; mean HPG incorporation (U2OS [3]; 10 µM): 115; nuclei count in HPG assay (U2OS [4]; 1 µM): 97; nuclei count in HPG assay (U2OS [4]; 3 µM): 101; nuclei count in HPG assay (U2OS [4]; 10 µM): 89.1

How did the “nuclei count in OPP assay” value (U2OS [1]; 1 µM) turn out when CC(=O)O[C@@H]1C[C@H]2C(C)(C)C(=O)C=C[C@]2(C)[C@H]2CC[C@@]3(C)[C@H](c4ccoc4)OC(=O)[C@H]4O[C@]43[C@@]21C [Gedunin] was run?
The value was 97.7.

And the “nuclei count in OPP assay” value (U2OS [1]; 3 µM)?
Its value is 96.4.

And the “nuclei count in OPP assay” value (U2OS [1]; 10 µM)?
The value was 95.9.

What about the “mean OPP incorporation” value (U2OS [2]; 1 µM) of the same compound?
The value was 112.

And the “mean OPP incorporation” value (U2OS [2]; 3 µM)?
The value was 114.

And the “mean OPP incorporation” value (U2OS [2]; 10 µM)?
The value was 115.

What about the “mean HPG incorporation” value (U2OS [3]; 1 µM) of the same compound?
The value was 91.2.

And the “mean HPG incorporation” value (U2OS [3]; 3 µM)?
Its value is 88.7.

What about the “mean HPG incorporation” value (U2OS [3]; 10 µM) of the same compound?
Its value is 66.3.

And the “nuclei count in HPG assay” value (U2OS [4]; 1 µM)?
Its value is 103.

What about the “nuclei count in HPG assay” value (U2OS [4]; 3 µM) of the same compound?
The value was 101.

And the “nuclei count in HPG assay” value (U2OS [4]; 10 µM)?
The value was 94.7.

From the supplement of paper PMC8183993
